According to US3963707A, “Novel N-nitroso compounds, compositions containing such compounds, processes for their preparation and methods of treatment therewith, and novel intermediates” (Aktiebolaget Leo, priority 1973, dated 1976):

Tested on: Hepatoma AH 130
Experiment: in vivo
Design: species or system SPF Wistar rats
Details: additional compounds, result in words
Description: The high activity against tumours is further illustrated in these experiments by comparisons with known antitumour agents used in the therapy. The therapeutic indexes (T.I.), i.e. the ratios LD50/ED50, are in all comparisons much more favourable with the compounds of the present invention.
LD50 is the dose that caused a 50 percent lethality of the animals, ED50 is the dose that caused a 50 percent reduction of tumour size.
The experimental design and the interpretation of the results have been in accordance with the standards set by the CCNSC (Cancer Chemotherapy Reports, January 1959 and December 1962), and by the DR&D (Cancer Chemotherapy Reports, September 1972, Vol. 3, No. 2).
The way of administration is by the intraperitoneal route (i.p.) in each case.
Experimental animals: SPF Wistar rats.
Tumour implant: 5 × 10^6 tumour cells i.p.
Therapy: One injection i.p. on the day following implantation.
Termination: The animals are killed on the 8th day.
Evaluation: Weights of tumours of test animals compared with those of control animals.

| SMILES | anti-tumor activity |
| --- | --- |
| C[C@]12CC[C@@H](OC(=O)N(CCF)N=O)C[C@H]1CC[C@@H]1[C@@H]2CC[C@]2(C)C(=O)CC[C@@H]12 [etiocholanolone-3α-N-(2-fluoroethyl)-N-nitroso carbamate] | exhibit anti-tumor activity |
| C#C[C@]1(OC(C)=O)CC[C@H]2[C@@H]3CCC4=C[C@@H](OC(=O)NC(=O)N(CCCl)N=O)CC[C@@H]4[C@H]3CC[C@@]21C [ethynodiol-17β-acetate-3β-/N^4-(2-chloroethyl)-N^4-nitroso allophanate/] | exhibit anti-tumor activity |
| C#C[C@]1(OC(C)=O)CC[C@H]2[C@@H]3CCC4=C[C@@H](OC(=O)N(C(=O)N(CCCl)N=O)c5ccccc5)CC[C@@H]4[C@H]3CC[C@@]21C [ethynodiol-17β-acetate-3β-/N^2-phenyl-N^4-(2-chloroethyl)-N-nitroso allophanate/] | exhibit anti-tumor activity |
| CC(C)CCC[C@@H](C)[C@H]1CC[C@H]2[C@@H]3CC=C4C[C@@H](OC(=O)N(C(=O)N(CCCl)N=O)c5ccccc5)CC[C@]4(C)[C@H]3CC[C@]12C [cholesterol-3β-/N^2-phenyl-N^4-(2-chloroethyl)-N^4-nitroso allophanate/] | exhibit anti-tumor activity |
| CC(=O)[C@H]1CC[C@H]2[C@@H]3CC=C4C[C@@H](OC(=O)N(CCF)N=O)CC[C@]4(C)[C@H]3CC[C@]12C [pregnenolone-3β-N-(2-fluoroethyl)-N-nitroso carbamate] | exhibit anti-tumor activity |
| C[C@H]1C[C@H]2[C@@H]3CC[C@H](OC(=O)N(CCCl)N=O)[C@@]3(C)CC[C@@H]2[C@@]2(C)CCC(=O)C=C12 [6α-methyltestosterone-17β-N-(2-chloroethyl)-N-nitroso carbamate] | exhibit anti-tumor activity |
| C[C@@H]1CC2=CC(=O)CC[C@]2(C)[C@H]2CC[C@@]3(C)[C@@H](CC[C@]3(C)OC(=O)N(CCCl)N=O)[C@H]12 [7α,17α-dimethyltestosterone-17β-N-(2-chloroethyl)-N-nitroso carbamate] | exhibit anti-tumor activity |
| CC(=O)[C@H]1CC[C@H]2[C@@H]3CC=C4C[C@@H](OC(=O)N(C(=O)N(CCCl)N=O)c5ccccc5)CC[C@]4(C)[C@H]3CC[C@]12C [pregnenolone-3β-/N^2-phenyl-N^4-(2-chloroethyl)-N^4-nitroso allophanate/] | exhibit anti-tumor activity |
| C[C@]12C=CC(=O)C=C1CC[C@@H]1[C@@H]2[C@@H](OC(=O)N(CCCl)N=O)C[C@@]2(C)[C@H]1CC[C@]2(O)C(=O)COP(=O)(O)O [prednisolone-11β-/N-(2-chloroethyl)-N-nitroso carbamate/-21-dihydrogenphosphate] | exhibit anti-tumor activity |
| CC(=O)[C@H]1CC[C@H]2[C@@H]3CC=C4C[C@@H](OC(=O)N(CCCl)C(=O)N(CCCl)N=O)CC[C@]4(C)[C@H]3CC[C@]12C [pregnenolone-3β-/N^2,N^4-bis (2-chloroethyl)-N^4-nitroso allophanate/] | exhibit anti-tumor activity |
| C#C[C@]1(OC(=O)N(CCCl)N=O)CC[C@H]2[C@@H]3CCC4=CC(=O)CC[C@@H]4[C@H]3CC[C@@]21CC [17α-ethynyl-18-methyl-19-nortestosterone-17β-N-(2-chloroethyl)-N-nitroso carbamate] | exhibit anti-tumor activity |
| CC(=O)[C@@]1(OC(=O)N(CCCl)N=O)CC[C@H]2[C@@H]3C=C(Cl)C4=CC(=O)CC[C@]4(C)[C@H]3CC[C@@]21C [6-chloro-6-dehydro-17α-hydroxyprogesterone,17α-N-(2-chloroethyl)-N-nitroso carbamate] | exhibit anti-tumor activity |
| CC(C)CCC[C@@H](C)[C@H]1CC[C@H]2[C@@H]3CC=C4C[C@@H](OC(=O)NC(=O)N(CCCl)N=O)CC[C@]4(C)[C@H]3CC[C@]12C [cholesterol-3β-/N^4-(2-chloroethyl)-N^4-nitroso allophanate/] | exhibit anti-tumor activity |
| Cc1ccc(N(C(=O)O[C@H]2CC[C@@]3(C)C(=CC[C@@H]4[C@@H]3CC[C@]3(C)C(=O)CC[C@@H]43)C2)C(=O)N(CCCl)N=O)cc1C [dehydroepiandrosterone-3β-/N^2-(3,4-dimethylphenyl)-N^4-(2-chloroethyl)-N^4-nitroso allophanate/] | exhibit anti-tumor activity |
| CC1CCC(N(C(=O)O[C@H]2CC[C@@]3(C)C(=CC[C@@H]4[C@@H]3CC[C@]3(C)C(=O)CC[C@@H]43)C2)C(=O)N(CCCl)N=O)CC1 (stereo partly drawn) [dehydroepiandrosterone-3β-/N^2-(4-methylcyclohexyl)-N^4-(2-chloroethyl)-N^4-nitroso allophanate/] | exhibit anti-tumor activity |
| CC(=O)[C@H]1CC[C@H]2[C@@H]3CC=C4C[C@@H](OC(=O)N(C(=O)N(CCCl)N=O)C5CCCCC5)CC[C@]4(C)[C@H]3CC[C@]12C [pregnenolone-3β-/N^2-cyclohexyl-N^4-(2-chloroethyl)-N^4-nitroso allophanate/] | exhibit anti-tumor activity |

| SMILES | anti-tumor activity |
| --- | --- |
| C=CC[C@]1(OC(=O)N(CCCl)N=O)CC[C@H]2[C@@H]3CCC4=CCCC[C@@H]4[C@H]3CC[C@@]21C [17α-allyl-estr-4-en-17β-ol,17β-N-(2-chloroethyl)-N-nitroso carbamate] | exhibit anti-tumor activity |
| CC1=C2CC[C@H]3[C@@H]4CC[C@H](OC(=O)N(CCCl)N=O)[C@@]4(C)CC[C@@H]3[C@@]2(C)CCC1=O [4-methyl-testosterone-17β-N-(2-chloroethyl)-N-nitroso carbamate] | exhibit anti-tumor activity |
| C#C[C@]1(OC(=O)N(CCCl)N=O)CC[C@H]2[C@@H]3CCC4=C[C@@H](O)CC[C@@H]4[C@H]3CC[C@@]21C [ethynodiol-17β-N-(2-chloroethyl)-N-nitroso carbamate] | exhibit anti-tumor activity |
| C[C@]12CC[C@H]3[C@@H](CC=C4C[C@@H](OC(=O)N(CCCl)N=O)CC[C@@]43C)[C@@H]1CC[C@@H]2OP(=O)(O)Oc1ccccc1 [androstenediol-3β-/N-(2-chloroethyl)-N-nitroso carbamate/-17β-phenyl hydrogen phosphate] | exhibit anti-tumor activity |
| C[C@]12C=CC(=O)C=C1CC[C@@H]1[C@@H]2[C@@H](O)C[C@@]2(C)[C@H]1CC[C@]2(O)C(=O)COC(=O)N(C(=O)N(CCCl)N=O)C1CCCCC1 [prednisolone-21-/N^2-cyclohexyl-N^4-(2-chloroethyl)-N-nitroso allophanate/] | exhibit anti-tumor activity |
| CC(=O)[C@@]1(OC(=O)N(CCCl)N=O)CC[C@H]2[C@@H]3C[C@H](C)C4=CC(=O)CC[C@]4(C)[C@H]3CC[C@@]21C [6α-methyl-17α-hydroxy-progesterone,17α-N-(2-chloroethyl)-N-nitroso carbamate] | exhibit anti-tumor activity |
| C#C[C@]1(OC(C)=O)CC[C@H]2[C@@H]3CCC4=C[C@@H](OC(=O)N(CCCC)C(=O)N(CCCl)N=O)CC[C@@H]4[C@H]3CC[C@@]21C [ethynodiol-17β-acetate-3β-/N^2-n-butyl-N^4-(2-chloroethyl)-N^4-nitroso allophanate/] | exhibit anti-tumor activity |
| CCOP(=O)(O)O[C@H]1CC[C@H]2[C@@H]3CCc4cc(OC(=O)N(CCCl)N=O)ccc4[C@H]3CC[C@]12C [estradiol-17β-ethyl hydrogen phosphate-3-N-(2-chloroethyl)-N-nitroso carbamate] | exhibit anti-tumor activity |
| CCCCC(=O)O[C@H]1CC[C@H]2[C@@H]3CCc4cc(OC(=O)N(CCCl)N=O)ccc4[C@H]3CC[C@]12C [estradiol-17β-valerate-3-N-(2-chloroethyl)-N-nitroso carbamate] | exhibit anti-tumor activity |
| C[C@]12CC[C@H]3[C@@H](CC=C4C[C@@H](OC(=O)N(CCCl)N=O)CC[C@@]43C)[C@@H]1CC[C@@H]2OC(=O)CCC(=O)O [androstenediol-17β-hemisuccinate-3β-N-(2-chloroethyl)-N-nitroso carbamate] | exhibit anti-tumor activity |
| COc1ccc2c(c1)CC[C@@H]1[C@@H]2CC[C@]2(C)[C@@H](OC(=O)N(C(=O)N(CCCl)N=O)c3ccccc3)CC[C@@H]12 [estradiol-3-methylether-17β-/N^2-phenyl-N^4-(2-chloroethyl)-N^4-nitroso allophanate/] | exhibit anti-tumor activity |
| C[C@]12CCC(=O)C=C1CC[C@@H]1[C@@H]2CC[C@@]2(C)[C@H]1CC[C@]2(C)OC(=O)N(CCCl)N=O [17α-methyltestosterone-17β-N-(2-chloroethyl)-N-nitroso carbamate] | exhibit anti-tumor activity |
| C#C[C@]1(OC(=O)N(CCCl)N=O)CC[C@H]2[C@@H]3CCC4=C[C@@H](OP(=O)(O)O)CC[C@@H]4[C@H]3CC[C@@]21C [ethynodiol-17β-N-(2-chloroethyl)-N-nitroso carbamate-3β-dihydrogen phosphate] | exhibit anti-tumor activity |
| CO[C@H]1CC[C@H]2[C@@H]3CC=C4C[C@@H](OC(=O)N(CCCl)N=O)CC[C@]4(C)[C@H]3CC[C@]12C [androstenediol-17β-methylether-3β-N-(2-chloroethyl)-N-nitroso carbamate] | exhibit anti-tumor activity |
| C#C[C@]1(OC(=O)N(CCCl)N=O)CC[C@H]2[C@@H]3CCC4=C[C@@H](OS(=O)(=O)O)CC[C@@H]4[C@H]3CC[C@@]21C [ethynodiol-17β-N-(2-chloroethyl)-N-nitroso carbamate-3β-sodium sulphate] | exhibit anti-tumor activity |
